{"source": "patent US6914045B2", "about": "“Glycopeptide antibiotics” (Wyeth Holdings Corporation, priority 2001, dated 2005)", "key": {"Enterococcus sp.": {"system": "Enterococcus sp.", "assay": "in vitro antibacterial evaluation, MIC by broth dilution", "format": "cell-based", "conditions": "broth dilution, 18 hours at 35° C.; for MIC Enterococcus faecalis (ATCC 29212): strain ATCC 29212; for MIC Enterococcus faecium (GC 2243): strain GC 2243; for MIC Enterococcus faecalis (GC 4552): strain GC 4552; for MIC Enterococcus faecalis (GC 4553): strain GC 4553; for MIC Enterococcus faecalis (GC 4554): strain GC 4554; for MIC Enterococcus faecium (GC 4556): strain GC 4556; for MIC Enterococcus faecium (GC 4557): strain GC 4557; for MIC Enterococcus avium (GC 4558): strain GC 4558; for MIC Enterococcus faecalis (GC 6189): strain GC 6189", "method_in_brief": "(§1)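 Following National Committee for Clinical Laboratory Standards recommendations (M7-A2), susceptibility was measured by dilution in Muller-Hinton II […]. Bacteria were seeded at 5×10^5 CFU/mL against compound concentrations from 64 down to 0.06 μg/mL.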"}, "Streptococcus sp.": {"system": "Streptococcus sp.", "assay": "in vitro antibacterial evaluation, MIC by broth dilution", "format": "cell-based", "conditions": "broth dilution, 18 hours at 35° C.", "method_in_brief": "as §1"}, "Staphylococcus sp.": {"system": "Staphylococcus sp.", "assay": "in vitro antibacterial evaluation, MIC by broth dilution", "format": "cell-based", "conditions": "broth dilution, 18 hours at 35° C.; for MIC Staphylococcus aureus (GC 1131): strain GC 1131", "method_in_brief": "as §1"}, "Escherichia coli": {"system": "Escherichia coli", "assay": "in vitro antibacterial evaluation, MIC by broth dilution", "format": "cell-based", "method_in_brief": "as §1"}, "[1]": {"system": "Staphylococcus aureus-SMITH (GC 4543)", "assay": "acute lethal infection in mice", "format": "in vivo", "conditions": "acute lethal infection, female CD-1 mice, intraperitoneal challenge, intravenous 30 min. after infection, 7 day survival", "method_in_brief": "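Protocol: bacteria suspended in trypticase soy broth or hog gastric mucin injected ip into female CD-1 mice at a level killing untreated controls in 24-48 hr; compound given iv in saline or 5% dextrose 30 min post-challenge; five mice per dose; ED50 derived from pooled 7 day survival of three runs.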"}}, "data": [{"smiles": "CC(c1ccccc1)C1NC(=O)CNC(=O)C(CO)NC(=O)C(C(O)C2CNC(=N)N2C2OC(CO)C(O)C(O)C2O)NC(=O)C(C(O)C2CNC(=N)N2)NC(=O)C(Cc2ccc(OC3OC(CO)C(OC4OC5COC(c6cc7c(cc6Cl)OCO7)OC5C(O)C4O)C(O)C3O)cc2)NC1=O", "note": "(stereo not drawn) [Example 158, Cyclo[glycyl-β-methylphenylalanyl-O-[4-O-[4,6-O-[(6-chloro-1,3-benzodioxol-5-yl)-methylene]hexopyranosyl]hexopyranosyl]tyrosyl-3-(2-iminoimidazolidin-4-yl)seryl-3-(3-hexopyranosyl-2-iminoimidazolidin-4-yl)serylseryl]]", "values": [{"measurement": "MIC Enterococcus faecalis (GC 2242)", "setting": "Enterococcus sp.; Enterococcus faecalis (GC 2242)", "value": 4, "unit": "µg/mL"}, {"measurement": "MIC Enterococcus faecalis (GC 2691)", "setting": "Enterococcus sp.; Enterococcus faecalis (GC 2691)", "value": 4, "unit": "µg/mL"}, {"measurement": "MIC Enterococcus faecalis (GC 3059)", "setting": "Enterococcus sp.; Enterococcus faecalis (GC 3059)", "value": 4, "unit": "µg/mL"}, {"measurement": "MIC Enterococcus faecalis (ATCC 29212)", "setting": "Enterococcus sp.; inoculum 5×10^5 CFU/mL", "value": 4, "unit": "µg/mL"}, {"measurement": "MIC Enterococcus faecium (GC 2243)", "setting": "Enterococcus sp.; inoculum 5×10^5 CFU/mL", "value": 4, "unit": "µg/mL"}, {"measurement": "MIC Enterococcus faecalis (GC 4552)", "setting": "Enterococcus sp.; inoculum 5×10^5 CFU/mL", "value": 8, "unit": "µg/mL"}, {"measurement": "MIC Enterococcus faecalis (GC 4553)", "setting": "Enterococcus sp.; inoculum 5×10^5 CFU/mL", "value": 4, "unit": "µg/mL"}, {"measurement": "MIC Enterococcus faecalis (GC 4554)", "setting": "Enterococcus sp.; inoculum 5×10^5 CFU/mL", "value": 4, "unit": "µg/mL"}, {"measurement": "MIC Enterococcus faecium (GC 4556)", "setting": "Enterococcus sp.; inoculum 5×10^5 CFU/mL", "value": 8, "unit": "µg/mL"}, {"measurement": "MIC Enterococcus faecium (GC 4557)", "setting": "Enterococcus sp.; inoculum 5×10^5 CFU/mL", "value": 2, "unit": "µg/mL"}, {"measurement": "MIC Enterococcus avium (GC 4558)", "setting": "Enterococcus sp.; inoculum 5×10^5 CFU/mL", "value": 4, "unit": "µg/mL"}, {"measurement": "MIC Enterococcus faecalis (GC 6189)", "setting": "Enterococcus sp.; inoculum 5×10^5 CFU/mL", "value": 4, "unit": "µg/mL"}, {"measurement": "MIC Enterococcus faecalis (ATCC 29212)", "setting": "Enterococcus sp.", "value": 4, "unit": "µg/mL"}, {"measurement": "MIC Enterococcus faecalis (GC 2242)", "setting": "Enterococcus sp.; strain GC 2242", "value": 4, "unit": "µg/mL"}, {"measurement": "MIC Enterococcus faecium (GC 2243)", "setting": "Enterococcus sp.", "value": 4, "unit": "µg/mL"}, {"measurement": "MIC Enterococcus faecalis (GC 2691)", "setting": "Enterococcus sp.; strain GC 2691", "value": 4, "unit": "µg/mL"}, {"measurement": "MIC Enterococcus faecalis (GC 3059)", "setting": "Enterococcus sp.; strain GC 3059", "value": 4, "unit": "µg/mL"}, {"measurement": "MIC Enterococcus faecalis (GC 4552)", "setting": "Enterococcus sp.", "value": 8, "unit": "µg/mL"}, {"measurement": "MIC Enterococcus faecalis (GC 4553)", "setting": "Enterococcus sp.", "value": 4, "unit": "µg/mL"}, {"measurement": "MIC Enterococcus faecalis (GC 4554)", "setting": "Enterococcus sp.", "value": 4, "unit": "µg/mL"}, {"measurement": "MIC Enterococcus faecium (GC 4556)", "setting": "Enterococcus sp.", "value": 8, "unit": "µg/mL"}, {"measurement": "MIC Enterococcus faecium (GC 4557)", "setting": "Enterococcus sp.", "value": 2, "unit": "µg/mL"}, {"measurement": "MIC Enterococcus avium (GC 4558)", "setting": "Enterococcus sp.", "value": 4, "unit": "µg/mL"}, {"measurement": "MIC Enterococcus faecalis (GC 6189)", "setting": "Enterococcus sp.", "value": 4, "unit": "µg/mL"}, {"measurement": "MIC Streptococcus agalactiae (GC 4564)", "setting": "Streptococcus sp.; Streptococcus agalactiae (GC 4564)", "value": 0.25, "unit": "µg/mL"}, {"measurement": "MIC Streptococcus pneumoniae (ATCC 6301)", "setting": "Streptococcus sp.; Streptococcus pneumoniae (ATCC 6301)", "value": 0.12, "unit": "µg/mL"}, {"measurement": "MIC Streptococcus pneumoniae (GC 1894)", "setting": "Streptococcus sp.; Streptococcus pneumoniae (GC 1894)", "value": "<0.06", "unit": "µg/mL"}, {"measurement": "MIC Streptococcus pneumoniae (GC 4565)", "setting": "Streptococcus sp.; Streptococcus pneumoniae (GC 4565)", "value": "<0.06", "unit": "µg/mL"}, {"measurement": "MIC Streptococcus pyogenes (GC 4563)", "setting": "Streptococcus sp.; Streptococcus pyogenes (GC 4563)", "value": 0.25, "unit": "µg/mL"}, {"measurement": "MIC Streptococcus pneumoniae (ATCC 6301)", "setting": "Streptococcus sp.; strain ATCC 6301", "value": 0.12, "unit": "µg/mL"}, {"measurement": "MIC Streptococcus pneumoniae (GC 1894)", "setting": "Streptococcus sp.; strain GC 1894", "value": "<0.06", "unit": "µg/mL"}, {"measurement": "MIC Streptococcus pyogenes (GC 4563)", "setting": "Streptococcus sp.; strain GC 4563", "value": 0.25, "unit": "µg/mL"}, {"measurement": "MIC Streptococcus agalactiae (GC 4564)", "setting": "Streptococcus sp.; strain GC 4564", "value": 0.25, "unit": "µg/mL"}, {"measurement": "MIC Streptococcus pneumoniae (GC 4565)", "setting": "Streptococcus sp.; strain GC 4565", "value": "<0.06", "unit": "µg/mL"}, {"measurement": "MIC Staphylococcus aureus (GC 1131)", "setting": "Staphylococcus sp.; inoculum 5×10^5 CFU/mL", "value": 2, "unit": "µg/mL"}, {"measurement": "MIC Staphylococcus aureus (ATCC 29213)", "setting": "Staphylococcus sp.; strain ATCC 29213", "value": 2, "unit": "µg/mL"}, {"measurement": "MIC Staphylococcus aureus (GC 1131)", "setting": "Staphylococcus sp.", "value": 2, "unit": "µg/mL"}, {"measurement": "MIC Staphylococcus aureus (GC 3051)", "setting": "Staphylococcus sp.; strain GC 3051", "value": 1, "unit": "µg/mL"}, {"measurement": "MIC Staphylococcus aureus (GC 3053)", "setting": "Staphylococcus sp.; strain GC 3053", "value": 2, "unit": "µg/mL"}, {"measurement": "MIC Staphylococcus aureus (GC 4541)", "setting": "Staphylococcus sp.; strain GC 4541", "value": 1, "unit": "µg/mL"}, {"measurement": "MIC Staphylococcus aureus (GC 4542)", "setting": "Staphylococcus sp.; strain GC 4542", "value": 1, "unit": "µg/mL"}, {"measurement": "MIC Staphylococcus aureus-SMITH (GC 4543)", "setting": "Staphylococcus sp.; strain GC 4543", "value": 2, "unit": "µg/mL"}, {"measurement": "MIC Staphylococcus aureus (GC 4544)", "setting": "Staphylococcus sp.; strain GC 4544", "value": 2, "unit": "µg/mL"}, {"measurement": "MIC Staphylococcus aureus (GC 4545)", "setting": "Staphylococcus sp.; strain GC 4545", "value": 2, "unit": "µg/mL"}, {"measurement": "MIC Staphylococcus haemolyticus (GC 4546)", "setting": "Staphylococcus sp.; strain GC 4546", "value": 0.5, "unit": "µg/mL"}, {"measurement": "MIC Coagulase Negative Staphylococcus (GC 4547)", "setting": "Staphylococcus sp.; strain GC 4547", "value": 2, "unit": "µg/mL"}, {"measurement": "MIC Coagulase Negative Staphylococcus (GC 4548)", "setting": "Staphylococcus sp.; strain GC 4548", "value": 1, "unit": "µg/mL"}, {"measurement": "MIC Coagulase Negative Staphylococcus (GC 4549)", "setting": "Staphylococcus sp.; strain GC 4549", "value": 1, "unit": "µg/mL"}, {"measurement": "MIC Coagulase Negative Staphylococcus (GC 4551)", "setting": "Staphylococcus sp.; strain GC 4551", "value": 2, "unit": "µg/mL"}, {"measurement": "MIC Coagulase Negative Staphylococcus (GC 6257)", "setting": "Staphylococcus sp.; strain GC 6257", "value": 1, "unit": "µg/mL"}, {"measurement": "MIC Staphylococcus aureus-SMITH (GC 4543)", "setting": "Staphylococcus sp.; strain SMITH GC 4543", "value": 2, "unit": "µg/mL"}, {"measurement": "MIC Escherichia coli (ATCC 25922)", "setting": "Escherichia coli; strain ATCC 25922, 18 hours at 35° C.", "value": 64, "unit": "µg/mL"}, {"measurement": "MIC Escherichia coli (GC 4559)", "setting": "Escherichia coli; strain GC 4559, 18 hours at 35° C.", "value": 64, "unit": "µg/mL"}, {"measurement": "MIC Escherichia coli (GC 4560)", "setting": "Escherichia coli; strain GC 4560, 18 hours at 35° C.", "value": 1, "unit": "µg/mL"}, {"measurement": "median effective dose (ED50), Staphylococcus aureus-SMITH (GC 4543)", "setting": "[1]", "value": 0.14, "unit": "mg/kg"}]}]}
